Laboratory results: the CheMixHub drug solubility set

Experiment: xn = mol fraction of the nth substance listed, in the solute-free solvent

Nc1cncc(Cl)n1 + CCCO + O
solubility (g/100 g solution)
Details	278.15 K	283.15 K	288.15 K	293.15 K	298.15 K	303.15 K	308.15 K	313.15 K	318.15 K	323.15 K
x2 = 0.03225	–	–	–	–	–	–	–	–	–	0.0893
x2 = 0.06974	–	–	–	–	–	–	–	–	–	0.208
x2 = 0.1139	0.364	0.43	0.499	0.588	0.686	0.81	0.936	1.08	1.23	1.41
x2 = 0.1666	0.527	0.621	0.722	0.852	0.998	1.18	1.36	1.57	1.79	2.05
x2 = 0.2307	0.638	0.75	0.883	1.04	1.25	1.48	1.73	2.01	2.31	2.65
x2 = 0.3103	0.747	0.891	1.06	1.26	1.51	1.79	2.11	2.46	2.83	3.24
x2 = 0.4117	0.837	1.02	1.22	1.46	1.76	2.11	2.48	2.89	3.33	3.85
x2 = 0.5454	0.928	1.11	1.31	1.61	1.94	2.37	2.82	3.33	3.85	4.44
x2 = 0.7297	0.918	1.12	1.37	1.7	2.09	2.52	3.02	3.56	4.15	4.87

O=C(O)c1cc([N+](=O)[O-])ccc1O + CC#N + O
solubility (g/100 g solution)
Details	278.15 K	283.15 K	288.15 K	293.15 K	298.15 K	303.15 K	308.15 K	313.15 K	318.15 K	323.15 K
x2 = 0.04651	0.16	0.194	0.238	0.291	0.357	0.446	0.552	0.685	0.838	1.03
x2 = 0.0989	0.399	0.59	0.782	0.967	1.18	1.42	1.71	2.02	2.34	2.73
x2 = 0.1583	1.06	1.33	1.68	2.11	2.54	3.11	3.71	4.38	5.16	6.05
x2 = 0.2264	2.36	2.8	3.34	4.03	4.74	5.57	6.57	7.63	8.9	10.3
x2 = 0.3051	3.97	4.82	5.77	6.86	8.19	9.58	11.1	12.7	14.5	16.6
x2 = 0.397	7.03	7.9	8.98	10.4	11.9	13.8	15.9	18.1	20.2	22.5
x2 = 0.506	9.09	10.3	11.8	13.6	15.5	17.5	19.6	21.8	23.9	26.2
x2 = 0.6372	10.7	11.8	13.5	15.5	17.8	19.9	21.9	24.7	26.9	28.9
x2 = 0.798	12	13.3	15	17.2	19.5	21.5	24.3	26.8	29.3	31.8
